Values quoted from earlier work in patent US20180177744A1, “METHOD OF TREATING PAIN AND […] A HYBRID MIXTURE OF S-KETAMINE AND R-KETAMINE” (priority 2016, published 2018).
Where two headings read alike, the source gives them in different places.

Columns and labels:
[1] = liquid formulation at 30 mg to 50 mg, intranasal (IN) route
[2] = in vivo
[3] = mice; versus esketamine
[4] = tested on: phencyclidine binding sites on the NMDA receptors; settings: versus arketamine
[5] = for anaesthetic potency relative to arketamine (R-isomer): clinically, versus arketamine
[6] = not given; remark: listed apart in the source
dopamine transporters = settings: versus arketamine
Sequence of dopamine transporters (Q01959 whole entry): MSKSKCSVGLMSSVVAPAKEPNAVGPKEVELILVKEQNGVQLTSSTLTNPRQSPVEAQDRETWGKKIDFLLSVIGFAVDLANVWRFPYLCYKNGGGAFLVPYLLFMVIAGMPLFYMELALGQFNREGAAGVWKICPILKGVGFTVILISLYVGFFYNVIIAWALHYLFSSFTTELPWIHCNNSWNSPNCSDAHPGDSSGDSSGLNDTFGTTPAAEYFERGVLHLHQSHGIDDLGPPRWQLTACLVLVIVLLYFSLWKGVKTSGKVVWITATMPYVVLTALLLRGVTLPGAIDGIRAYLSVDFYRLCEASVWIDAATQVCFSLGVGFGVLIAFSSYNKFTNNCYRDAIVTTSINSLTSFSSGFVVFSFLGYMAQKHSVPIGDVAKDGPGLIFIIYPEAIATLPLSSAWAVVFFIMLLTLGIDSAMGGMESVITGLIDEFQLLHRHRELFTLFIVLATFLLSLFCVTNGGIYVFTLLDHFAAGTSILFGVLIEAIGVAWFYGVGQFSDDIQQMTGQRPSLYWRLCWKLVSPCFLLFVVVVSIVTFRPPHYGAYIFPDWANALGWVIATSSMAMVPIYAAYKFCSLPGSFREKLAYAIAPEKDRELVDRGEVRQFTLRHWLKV

CNC1(c2ccccc2Cl)CCCCC1=O (racemic) [racemic ketamine, 2-(2-chlorphenyl)-2-(methylamino)-cyclohexanone]
ability to stop acute and/or breakthrough pain [1]: stop acute and/or breakthrough pain

CN[C@@]1(c2ccccc2Cl)CCCCC1=O [arketamine, R(−)-ketamine]
glucose metabolism in the brain [2]: decreases glucose metabolism in the brain
rapid antidepressant effect [3]: greater and lasted longer than that of esketamine
psychotomimetic effects (in vivo): devoid of psychotomimetic effects

CN[C@]1(c2ccccc2Cl)CCCCC1=O [esketamine, S(+)-ketamine]
binding to sigma receptors (sigma receptors): does not bind significantly
affinity for the PCP binding site of the NMDA receptor relative to arketamine ([4]; listed as Esketamine): 3-4 times
affinity for the PCP binding site of the NMDA receptor relative to arketamine ([4]; listed as S(+)ketamine): three to four times greater
anaesthetic potency relative to arketamine (R-isomer) [5]: 3-4 times
anaesthetic potency relative to arketamine (R-isomer) ([5]; listed as S(+)ketamine): three to four times
anesthetic potency relative to racemic ketamine ([5]; versus racemic ketamine): two times
elimination from the human body [6]: more quickly than arketamine (R(−)-ketamine) or racemic ketamine
glucose metabolism in the brain [2]: increases glucose metabolism in the frontal cortex
inhibition of dopamine transporters relative to arketamine (dopamine transporters): eight times more
recovery of cerebral functions (after anaesthesia, study persons): more rapid recovery of cerebral functions
